For one data set, the system named is LAT1 mRNA. Kind of data set: LAT1 gene expression (RT-qPCR, relative to GAPDH) after LAT1 gene silencing in SK-HEP-1 cells. It is filed as cell-based, human. The conditions noted are these: at 24 h. How it is done:
(§1) SK-HEP-1, T24, HT-1080 and HCT-116 cell lines were maintained in a humidified atmosphere of 5% CO2 at 37° C. SK-HEP-1 cells were grown in RPMI-1640 (Sigma, St. Louis, Mo.) supplemented with 20% fetal bovine serum (FBS) (Gibco, UK), 100 U/mL penicillin G, 0.25 μg/mL amphotericin B, 100 μg/mL streptomycin (Gibco, UK), 25 mM sodium bicarbonate (Merck, Germany) and 25 mM N-2-hydroxyethylpiperazine-N′-2-ethanosulfonic acid (HEPES) (Sigma, St. Louis, Mo.). T24 and HT-1080 cells were grown, respectively, in Dulbecco's Modified Eagle's Medium (DMEM)—high glucose (Sigma, St. Louis, Mo.) and DMEM—low glucose (Sigma, St. Louis, Mo.), supplemented with 10% FBS (Gibco, UK), 100 U/mL penicillin G, 0.25 μg/mL amphotericin B, 100 μg/mL streptomycin (Gibco, UK), 25 mM sodium bicarbonate (Merck, Germany) and 25 mM HEPES (Sigma, St. Louis, Mo.). HCT-116 cells were grown in McCoy's 5A (Sigma, St. Louis, Mo.) supplemented with 10% FBS (Gibco, UK), 100 U/mL penicillin G, 0.25 μg/mL amphotericin B, 100 μg/mL streptomycin (Gibco, UK), 25 mM sodium bicarbonate (Merck, Germany) and 25 mM HEPES (Sigma, St. Louis, Mo.). For all cell lines the medium was changed every 2 days, and cells reached confluence 3-4 days after initial seeding. For subculturing, cells were dissociated with 0.25% trypsin-ethylenediaminetetraacetic acid (EDTA) (Sigma, St. Louis, Mo.), split 1:15 or 1:20 and subcultured in a 21-cm^2 growth area (Sarstedt, Germany).
(§2) Total RNA was isolated and purified using the SV Total RNA Isolation System (Promega, USA) according to manufacturer's instructions. RNA quality and concentration were verified in the NanoDrop ND1000 Spectrophotometer (Thermo Scientific, USA), and RNA integrity and genomic DNA contamination were evaluated by agarose gel electrophoresis. Total RNA (1 μg) was converted into cDNA using the Maxima Scientific First Strand cDNA Synthesis Kit for RT-qPCR (Thermo Scientific, USA), according to instructions. The following protocol was used: 1st step, 10 min at 25° C.; 2nd step, 15 min at 50° C.; 3rd step, 5 min at 85° C. cDNA was used for qPCR analysis using Maxima SYBR Green qPCR Master Mix (Thermo Scientific, USA) in the StepOnePlus instrument (Applied Biosystems, USA). QuantiTect Primer Assay for LAT1 and ASCT2 and for the endogenous control gene GAPDH (Quiagen, Germany) were used. The qPCR reaction was performed in 96-well PCR plates (Sarstedt, Germany) as follows: one cycle of 10 min at 95° C., followed by 40 PCR cycles at 95° C. 15 s and 60° C. 60 s. […] No template controls were always evaluated for each target gene. Quantification cycle (Cq) values were generated automatically by the StepOnePlus 2.3 Software and the ratio of the target gene was expressed in comparison to the endogenous control gene GAPDH.
(§3) Cells were plated in 24-well (Sarstedt, Germany) or 6-well plates (Sarstedt, Germany) or 96-well plates with black walls clear bottom (BD Biosciences, USA) and incubated 24 h under normal growth conditions. siRNAs against LAT1 and transfection agent were diluted at desired concentrations and mixed according to transfection agent manufacturer's instructions. The mixture was incubated 20 min at RT for siRNA-complex formation, after which it was added to the cells and incubated at 37° C., 5% CO2. After the incubation period, serum and antibiotic was restored and cells were further incubated at normal conditions for the desired time points until evaluation of LAT1 activity or LAT1 expression (immunoblotting and RT-qPCR).

The test system of a further data set is LAT1. In words: LAT1 activity: [^14C]-L-leucine uptake in SK-HEP-1 cells after LAT1 gene silencing. Format: cell-based, human. How it is done: (§4) Cells were plated in 24-well plates (Sarstedt, Germany) and grown until confluence was reached. On the day of the experiment, cell culture medium was aspirated and cells were preincubated for 15 min in Hanks' medium (NaCl 140 mM, KCl 5 mM, MgSO4.7H2O 0.8 mM, K2HPO4 0.33 mM, KH2PO4 0.44 mM, MgCl2.6H2O 1 mM, CaCl2) 0.025 mM, Tris-HCl 9.75 mM, pH 7.4). Uptake was initiated by addition of Hanks' medium with 0.25 μM [^14C]-L-leucine in the absence and in the presence of 3 mM unlabeled L-leucine. During preincubation and incubation cells were continuously shaken and maintained at 37° C. Uptake was terminated after 1 min by rapid removal of uptake solution by means of a vacuum pump connected to a Pasteur pipette, followed by a rapid wash with Hanks' medium. Subsequently, cells were solubilized in 0.1% vol/vol Triton X-100 (dissolved in 5 mM Tris-HCl, pH 7.4), and radioactivity was measured by liquid scintillation counting.
as §3

The subject of data set [1] is human colon cancer HTC-116 cells. Kind of data set: Cell proliferation assay (calcein-AM) in human colon cancer HTC-116 cells. It is filed as cell-based. The conditions noted are these: for cell proliferation / proliferation: treatment 6 h; for cell proliferation: 72 h exposure; for proliferation: at 72 h, 0.17% Lipofectamine 2000 or 0.1% Injectin, FIGS. 19B and 20B. Here is the method: as §1
Cell proliferation was measured using calcein-AM (Thermo Fisher Scientific, USA). The membrane permeant calcein-AM, a nonfluorescent dye, is taken up and converted by intracellular esterases to membrane impermeant calcein, which emits green fluorescence. Cells were plated in 96-well plates with black walls clear bottom (BD Biosciences, USA) and incubated 24 h under normal growth conditions. Cells were incubated with test items at 37° C., 5% C02. After the incubation period, serum and antibiotic was restored and cells were further incubated at normal conditions during 72 h. After treatment with test substances or vehicle, cells were washed twice with Hanks' medium and loaded with 2 μM calcein-AM in Hanks' medium, at 37° C. for 30 min. Fluorescence was measured at 485 nm excitation and 530 nm emission wavelengths in a microplate spectrofluorometer (Gemini EM, Molecular Devices). Nine consecutive fluorescence measurements are performed per well, to allow fluorescence readings in the whole area of the well, which was then considered for the calculation of mean fluorescence per well. To determine minimum staining for calcein (calceinmin), eight wells were treated with ethanol 30 min before calcein-AM addition. The percent cell number is calculated as [(calceinsample)/(calceincontrol)]×100.

Data set [2] relates to ASCT2 mRNA. In words: ASCT2 gene expression (RT-qPCR, relative to GAPDH) after ASCT2 gene silencing in SK-HEP-1 cells. Format: cell-based, human. As to conditions: at 24 h; for ASCT2 mRNA relative abundance: liver carcinoma SK-HEP-1 cells, 10 nM siRNA, treatment 6 h, 0.5% Lipofectamine 2000, FIG. 4B. How it is done:
as §1, §2
as §3, with “ASCT2” for “LAT1”

For data set [3], the system named is ASCT2. In words: ASCT2 activity: [^14C]-L-alanine uptake in SK-HEP-1 cells after ASCT2 gene silencing. As to conditions: ASCT2 siRNA; general statement, conditions not given. It is filed as cell-based, human. Here is the method: as §4, with “the experiment, Cell culture medium” for “the experiment, cell culture medium”, “Hanks' medium (ChCl 140 mM,” for “Hanks' medium (NaCl 140 mM,”, “initiated by the addition of” for “initiated by addition of”, “0.25 μM [^14C]-L-alanine in the” for “0.25 μM [^14C]-L-leucine in the”, “mM unlabeled L-alanin. During preincubation” for “mM unlabeled L-leucine. During preincubation”
as §3, with “ASCT2” for “LAT1”

The test system of data set [4] is ASCT2 mRNA. Kind of data set: ASCT2 gene expression (RT-qPCR) after ASCT2 gene silencing in human colon cancer HTC-116 cells. It is filed as cell-based. The conditions noted are these: treatment 6 h. Here is the method: as §1, §2
as §3, with “ASCT2” for “LAT1”

Data set [5] concerns ASCT2. Kind of data set: ASCT2 activity: [^14C]-L-alanine uptake in fibrosarcoma HT-1080 cells after ASCT2 gene silencing. Format: cell-based, human. As to conditions: fibrosarcoma HT-1080 cells; 5 nM siRNA; treatment 6 h; at 48 h; 0.4% Lipofectamine 2000; FIG. 8B. How it is done: as §4, with “the experiment, Cell culture medium” for “the experiment, cell culture medium”, “Hanks' medium (ChCl 140 mM,” for “Hanks' medium (NaCl 140 mM,”, “initiated by the addition of” for “initiated by addition of”, “0.25 μM [^14C]-L-alanine in the” for “0.25 μM [^14C]-L-leucine in the”, “mM unlabeled L-alanin. During preincubation” for “mM unlabeled L-leucine. During preincubation”
as §3, with “ASCT2” for “LAT1”

The mark [6] stands for this setting: 5 or 25 nM siRNA, at 24 h or 48 h, 0.5% Lipofectamine 2000, FIGS. 9B and 9C.
The mark [7] stands for this setting: 72 h, 0.17% Lipofectamine 2000 or 0.1% Injectin, FIG. 20A.

Regarding “58 (CTTCGCCACCTACCTGCTCAA; chemistry not given here) [compound 58]”, in the data set on LAT1 mRNA (SK-HEP-1 cells, 10 nM, p<0.05), the “Effect on LAT1 mRNA relative abundance compared with SEQ ID NO: 34” value is listed as “significantly greater”. Further, the “LAT1 mRNA relative abundance” value in the data set on LAT1 mRNA (liver carcinoma SK-HEP-1 cells, 10 nM siRNA, treatment 6 h, Lipofectamine 2000, FIG. 4A) is “decreased”. Besides, the “inhibiting sodium-independent [^14C]-L-leucine transport” value (“inhibiting sodium-independent” for short) in the data set on LAT1 (LAT1 siRNA, general statement, conditions not given) is given as “particularly effective”. Further, the “Effect on [^14C]-L-leucine uptake compared with SEQ ID NO: 34” value in the data set with LAT1 (SK-HEP-1 cells, 10 nM, p<0.05) is “significantly greater”. Further, in the data set with LAT1 (liver carcinoma SK-HEP-1 cells, 10 nM siRNA, treatment 6 h, at 24 h and 48 h, 0.4% Lipofectamine 2000, FIGS. 5A and 5C), the “[^14C]-L-leucine (0.25 μM) uptake at initial rate of uptake (1 min)” value was “decreased”. Moreover, the “Effect on cell proliferation compared with SEQ ID NO: 34” value in data set [1] (72 h, 0.1% Injectin, p<0.05) is “significantly greater”.
In the case of “225 (AATAATGGCGTGGCCAAGCAC; chemistry not given here) [compound 225]”, in the data set on ASCT2 mRNA [2], the “ASCT2 mRNA relative abundance” value was “decreased”. Also, the “inhibiting sodium-independent” value in the data set with ASCT2 [3] was “particularly effective”.
On to “237 (AATTACGTGGACCGTACGGAG; chemistry not given here) [compound 237]”, for which the “ASCT2 mRNA relative abundance” value with ASCT2 mRNA [2] is “decreased”. Moreover, in the data set with ASCT2 [3], the “inhibiting sodium-independent” value is given as “particularly effective”.
For the substance “267 (CCGGTCCTGTACCGTCCTCAA; chemistry not given here) [compound 267]”, the “ASCT2 mRNA relative abundance” value with ASCT2 mRNA [2] is given as “decreased”. In addition, the “inhibiting sodium-independent” value with ASCT2 [3] is “particularly effective”.
“267/356/402 (sense CCGGUCCUGUACCGUCCUCAA; antisense UUGAGGACGGUACAGGACCGG; chemistry not given here)”: the “ASCT2 mRNA relative abundance” value was “decreased” in the data set with ASCT2 mRNA [4] (setting [6]) and “significantly decreased” in the data set with ASCT2 mRNA [4] (setting [7]). The cell proliferation result in data set [1] (0.1% Injectin, FIG. 14) is “decreased”. The proliferation result in data set [1] is recorded as “significantly decreased”. The “[^14C]-L-alanine (0.25 μM) uptake at initial rate of uptake (1 min)” value (“[^14C]-L-alanine (0.25 μM) uptake” below) in the data set on ASCT2 [5] was “decreased”.
In the case of “267/397/398 (sense CCGGUCCUGUACCGUCCUCAATT; antisense UUGAGGACGGUACAGGACCGGTT; siRNA; sugars by position and backbone not given here; further chemistry not fully specified)”, the “ASCT2 mRNA relative abundance” value in the data set on ASCT2 mRNA [4] (setting [6]) is listed as “decreased”; in the data set with ASCT2 mRNA [4] (setting [7]), “significantly decreased”. The “Effect on cell proliferation compared with SEQ ID NO: 267/356/402” value in data set [1] (72 h, 0.1% Injectin, p<0.05) was “significantly greater”. The “Effect of siRNA-LAT1 SEQ ID NO: 58/387/388 upon proliferation in combination with the siRNA-ASCT2” value in data set [1] (72 h, siRNA-ASCT2 at non-efficacious conditions (0.037% Injectin), FIG. 18) is “enhanced”. The cell proliferation entry in data set [1] (0.1% Injectin, FIG. 14) is given as “decreased”; in data set [1] (increasing Injectin (0.037% to 0.15%), FIG. 15) it was “decreased”. In addition, the proliferation entry in data set [1] is on record as “significantly decreased”. For the same substance, the “[^14C]-L-alanine (0.25 μM) uptake” value in the data set on ASCT2 [5] is listed as “decreased”.
Regarding “278 (TGCCACGGTCGCCTCTGAGAA; chemistry not given here) [compound 278]”, the “Effect on ASCT2 mRNA relative abundance compared with SEQ ID NO: 267” value in the data set on ASCT2 mRNA [2] (SK-HEP-1 cells, 10 nM, p<0.05) was “significantly greater”. Besides, the “ASCT2 mRNA relative abundance” value in the data set with ASCT2 mRNA [2] is “decreased”. In addition, in the data set with ASCT2 [3], the “inhibiting sodium-independent” value is given as “particularly effective”.
Take “278/367/408 (sense UGCCACGGUCGCCUCUGAGAA; antisense UUCUCAGAGGCGACCGUGGCA; chemistry not given here)”: the “ASCT2 mRNA relative abundance” value in the data set on ASCT2 mRNA [4] (setting [6]) is “decreased”; in the data set with ASCT2 mRNA [4] (setting [7]), “significantly decreased”. Also, the cell proliferation result in data set [1] (0.1% Injectin, FIG. 14) is “decreased”. For the same substance, the proliferation entry in data set [1] is recorded as “significantly decreased”. The “[^14C]-L-alanine (0.25 μM) uptake” value in the data set with ASCT2 [5] is on record as “decreased”.

These data come from US10590422B2, “Anticancer therapeutic intervention” (PHYZAT BIOPHARMACEUTICALS, LDA., priority 2017, dated 2020).
